Measured values as given in ChEMBL document CHEMBL1138531, “Pharmacokinetics of penicillin G in infants with a gestational age of less than 32 weeks” (Antimicrob Agents Chemother, 2007).

Experiments:
Type in all cases: ADME, organism-based
[1] = Clearance in preterm neonates with septicemia or invasive infections with gestational age of less than 32 weeks at 50000 U/kg, iv administered every 12 hrs; settings: human, in vivo
[2] = Volume of distribution in central compartment in preterm neonates with septicemia or invasive infections with gestational age of less than 32 weeks at 50000 U/kg, iv administered every 12 hrs; settings: human, in vivo, read-out: Vc
Homo sapiens [3] = test: Apparent peripheral volume of distribution in preterm neonates with septicemia or invasive infections with gestational age of less than 32 weeks at 50000 U/kg, iv administered every 12 hrs; settings: in vivo
Homo sapiens [4] = test: Intercompartmental clearance in preterm neonates with septicemia or invasive infections with gestational age of less than 32 weeks at 50000 U/kg, iv administered every 12 hrs; settings: in vivo
[5] = Volume of distribution at steady state in preterm neonates with septicemia or invasive infections with gestational age of less than 32 weeks at 50000 U/kg, iv administered every 12 hrs; settings: human, in vivo, read-out: Vdss
[6] = Elimination half life in preterm neonates with septicemia or invasive infections with gestational age of less than 32 weeks at 50000 U/kg, iv administered every 12 hrs; settings: human, in vivo, read-out: beta t1/2 (converted)
[7] = Clearance in iv dosed neonates with gestational age of 27 to 40 weeks; settings: human, in vivo
[8] = Volume of distribution in iv dosed neonates with gestational age of 27 to 40 weeks; settings: human, in vivo
[9] = Half life in iv dosed neonates with gestational age of 27 to 40 weeks; settings: human, in vivo
[10] = Volume of distribution in neonates; settings: human, in vivo

clearance [1]	Vd [2]	Vp/F (Homo sapiens [3])	CL (Homo sapiens [4])	Vd [5]	half-life [6]	clearance [7]	Vd [8]	half-life [9]	Vd [10]	Structure (SMILES)
1.72 mL/min	0.359 L	0.152 L	0.774 L/h	0.54 L	3.9 h	2 mL/min/kg	0.61 L/kg	3.8 h	0.45 L/kg	CC1(C)S[C@@H]2[C@H](NC(=O)Cc3ccccc3)C(=O)N2[C@H]1C(=O)O [PENICILLIN G]
									0.41 L/kg	CC1(C)S[C@@H]2[C@H](NC(=O)[C@H](N)c3ccc(O)cc3)C(=O)N2[C@H]1C(=O)O [AMOXICILLIN]
									0.3 L/kg	CC1(C)S[C@@H]2[C@H](NC(=O)[C@H](N)c3ccccc3)C(=O)N2[C@H]1C(=O)O [AMPICILLIN]
